Measurements taken from patent US9226929B2, “Pharmaceutically active disubstituted triazine derivatives” (Bayer Intellectual Property GMBH, priority 2011, dated 2016).

Experiments:
CDK7/CyclinH/MAT1 [1] = molecular target: T1, CDK7/CyclinH/MAT1 (Homo sapiens, UniProt P50613); assay: LanthaScreen Eu Kinase Binding Assay, CDK7; settings: tracer 236, read-out: CDK7 (activity range), Kd
T1 construct: His; purchased Carna Biosciences
Protocol: (§1) This protocol describes how the LanthaScreen Eu Kinase Binding Assay was performed to determine dissociation constants (Kd) of compounds of general formula (I) and CDK/Cyclin complexes. The principle behind this assay is based upon the binding and displacement of an Alexa Fluor 647-labeled tracer, which binds to the active site of kinases. Binding of the tracer to the kinase is detected using a Eu-labeled antibody. Simultaneous binding of both the tracer and antibody to the kinase gives rise to a FRET-signal. Binding of an inhibitor to the kinase competes for binding with the tracer, resulting in a loss of FRET.
(§2) The compounds of general formula (I) summarized in Table 1 were diluted from a 10 mM DMSO stock solution 1:10 in a total volume of 15 μL DMSO. This compound predilution was then serial diluted 1:3 over 8 steps in DMSO and briefly spun down. Each compound solution was now diluted 1:33.33 in kinase buffer (HEPES: 20 mM, pH: 8.0; MgCl2: 10 mM; DTT: 1 mM; Brij-35: 0,01%), mixed thoroughly and spun down. For every sample, 5 μL of the diluted compound were mixed with 5 μL tracer working solution (e.g. 60 nM tracer 236 in kinase buffer for CDK2/Cyclin A) and 5 μL CDK/Cyclin/Anti-GST-AB-working solution (e.g. 15 nM CDK2/Cyclin A, 1:250 dilution of Anti-GST-AB in kinase buffer) in a well of a small volume 384 well plate (Corning Incorporated, Corning, N.Y., USA; order no. 3673). The tracer concentration was adjusted to its dissociation constant (Kd) for the CDK/Cyclin, which was 30 nM for CDK2/Cyclin A, CDK7/Cyclin H and CDK9/Cyclin T1, 20 nM for CDK8/Cyclin C, and 35 nM for CDK9/Cyclin K. For negative controls, in each well 5 μL of DMSO working solution (3% DMSO diluted in kinase buffer) was mixed with 5 μL Anti-GST-AB working solution (e.g. 1:250 dilution of Anti-GST-AB in kinase buffer for CDK2/Cyclin A) and 5 μL Tracer working solution (e.g. 60 nM Tracer 236 in kinase buffer for CDK2/Cyclin A). For positive controls, in each well 5 μL of DMSO working solution (3% DMSO diluted in kinase buffer) was mixed with 5 μL CDK/Cyclin/Anti-GST-AB-working solution: (e.g. 15 nM CDK2/Cyclin A, 1:250 dilution of Anti-GST-AB in kinase buffer) and 5 μL Tracer working solution (e.g. 60 nM Tracer 236 in kinase buffer for CDK2/Cyclin A). Positive and negative controls were calculated from at least 8 different sample wells. The 384 well plates were mixed in a Teleshaker plate mixer (Beckman Coulter, Brea, Calif., USA) at 2000 rpm for 40 sec, and incubated for 1 h at room temperature before reading. The FRET signal was measured at 340 nm excitation, 665 nm and 615 nm emission (for the kinase tracer and LanthaScreen Eu-AB, respectively) with an Envision spectrophotometer (Perkin Elmer, Waltham, Mass., USA) with […]. Kd values were determined from the sigmoidal dose response curves with the software Quattro Workflow (Quattro GmbH, Munich, Germany).

Hela cells = assay: Cell Viability Assay, Hela cells; type: cell-based; settings: Homo sapiens, 72 h, Cell Titer Glo, read-out: Cell Viability - Hela cells (activity range), IC50
Protocol: (§3) 3.4 Cell Viability Assays
(§4) Hela- or MDAMB468-Cells were maintained in RPMI 1640 or McCoy's 5A cell culture medium+glutamine (PAN Biotech GmbH, Aidenbach, Germany; order no. PO4-22100; PO4-05500) supplemented with 10% fetal calf serum “Gold” (PAA Laboratories GmbH, Pasching, Austria; order no. A15-151) and grown at 37° C., 5% CO2. For the cell viability assay, cells were seeded with a density of 400 (Hela cells, DSMZ Braunschweig order no. ACC57) or 800 (MDAMB468 cells, ATCC order no. HTB-132) per well in 25 μL in 384-well plates (Greiner Bio-One, Frickenhausen, Germany; order no. 781080). After overnight incubation at 37° C./5% CO2, 25 nL or 75 nL compound were added to each sample well by using BIOMEK FXP Laboratory Automation Workstation (Beckman Coulter, USA). Wells with cells and 0.1% or 0,3% DMSO in culture medium were used as positive controls, wells with cells and 10 μM staurosporine in culture medium were used as negative controls. The cells were incubated with the compounds for 72 h at 37° C./5% CO2. For measurement of cell viability 25 μL Cell Titer Glo reagent (Promega, Madison, USA; order no. G7573), 1:2 diluted with cell culture medium, was added to each well. The 384we11-plates were placed for 2 min on a orbital microplate shaker and incubated for further 10 min at room temperature to stabilize the luminescence signal.
(§5) Luminescence was measured by Envision Plate Reader (Perkin Elmer, USA). IC50 values were calculated with the software Excel Fit (IDBS, Guildford, UK) from 3-fold dilution series comprising at least 8 concentrations in duplicates.

MDAMB468 cells = assay: Cell Viability Assay, MDAMB468 cells; type: cell-based; settings: Homo sapiens, MDA-MB-468; 72 h, Cell Titer Glo; read-out: Cell Viability - MDAMB468 cells (activity range), IC50
Protocol: as §3, §4, §5

CDK2/CyclinA [2] = molecular target: T2, CDK2/CyclinA (Homo sapiens, UniProt P24941); assay: LanthaScreen Eu Kinase Binding Assay, CDK2; settings: tracer 236, read-out: CDK2 (activity range), Kd
T2 construct: GST; purchased Proqinase
Protocol: as §1, §2

CDK9/Cyclin T1 = molecular target: T3, CDK9/Cyclin T1 (Homo sapiens, UniProt P50750); assay: LanthaScreen Eu Kinase Binding Assay, CDK9/Cyclin T1; settings: tracer 236, read-out: CDK9/Cyclin T1 (activity range), Kd
T3 construct: His; purchased Invitrogen
Protocol: as §1, §2

CDK9/Cyclin K = molecular target: T4, CDK9/Cyclin K (Homo sapiens, UniProt P50750); assay: LanthaScreen Eu Kinase Binding Assay, CDK9/Cyclin K; settings: tracer 236, read-out: CDK9/Cyclin K (activity range), Kd
T4 construct: His; purchased Invitrogen
Protocol: as §1, §2

CDK7/CyclinH/MAT1 [3] = molecular target: T1, CDK7/CyclinH/MAT1; assay: Lance Ultra KinaSelect Assay, CDK7; type: biochemical; settings: ATP 25 μM; read-out: CDK7 LANCE assay (activity range), IC50
Protocol: (§6) 2. Measurement of half maximal inhibitory concentration to CDKs This protocol describes how the Lance Ultra KinaSelect Assay was performed to determine half maximal inhibitory concentration (1050) of compounds of general formula (I) and CDK/Cyclin complexes. The principle behind this enzymatic assay is based upon the phosphorylation of the ULight-Peptide Substrat. It is detected by using a specific
(§7) EU-labeled anti-phospho peptide antibody. The binding of the Eu-labeled anti-phospho peptide antibody to the phosphorylated ULight labeled peptide gives rise to a FRET-signal. Binding of an inhibitor to the kinase prevents phosphorylation of the ULight-MBP Substrat, resulting in a loss of FRET.
(§8) The compounds of general formula (I) summarized in Table 5 were diluted from a 10 mM DMSO stock solution 1:10 in a total volume of 15 μL DMSO. This compound predilution was then serial diluted 1:3 over 8 steps in DMSO and briefly spun down. Each compound solution was now diluted 1:20 in Enzymatic Buffer (HEPES: 50 mM, pH: 7.5; MgCl2: 10 mM; EGTA: 1 mM; DTT: 2 mM; Tween-20: 0.01%), mixed thoroughly and spun down. For every sample, 2 μL of the diluted compound were mixed with 6 μL CDK/Cyclin/Substrat solution and 2 μL ATP solution in a well of a small volume 384 well plate (Corning Incorporated, Corning, N.Y., USA; order no. 3673). The CDK/Cyclin was diluted to the appropriate concentration (see Table 3) and the ATP concentration was adjusted to its […] for the CDK/Cyclin, which was 3 μM for CDK2/Cyclin A, 20 μM for CDK1/Cyclin B1, 25 μM for CDK7/Cyclin H and CDK9/Cyclin T1, 55 μM for CDK6/Cyclin D3, 90 μM for CDK4/Cyclin D1 and 125 μM for CDK9/Cyclin K. For negative controls, in each well 2 μL of DMSO solution (1% final DMSO assay concentration) was mixed with 6 μL substrate solution (50 nM ULight MBP final assay concentration) and 2 μL ATP solution (appropriate final concentration see Table 3). For positive controls, in each well 2 μL of DMSO solution (1% final DMSO assay concentration) was mixed with 6 μL CDK/Cyclin/Substrat (appropriate final concentration see Table 3) and 2 μL Tracer ATP solution (appropriate final concentration see Table 3). Positive and negative controls were calculated from at least 8 different sample wells. The 384 well plates were mixed in a Teleshaker plate mixer (Beckman Coulter, Brea, Calif., USA) at 2000 rpm for 40 sec, and incubated for 1 h at room temperature. Before reading, 10 μL the detection buffer (Lance Detection Buffer 1×; EDTA: […]; Eu-Anti-P-MBP: see Table 3) was added. The FRET signal was measured at 340 nm excitation, 665 nm and 615 nm emission (for the kinase tracer and LanthaScreen Eu-AB, respectively) with an Envision spectrophotometer (Perkin Elmer, Waltham, Mass., USA) with 50 μs delay and 300 μs integration time. IC50 values were determined from the sigmoidal dose response curves with the software Quattro Workflow (Quattro GmbH, Munich, Germany).

CDK6/CyclinD3 = molecular target: T5, CDK6/CyclinD3 (Homo sapiens, UniProt Q00534); assay: Lance Ultra KinaSelect Assay, CDK6; type: biochemical; settings: ATP 55 μM; read-out: CDK6 LANCE assay (activity range), IC50
T5 construct: purchased Carna
Protocol: as §6, §7, §8

CDK1/CyclinB1 = molecular target: T6, CDK1/CyclinB1 (Homo sapiens, UniProt P06493); assay: Lance Ultra KinaSelect Assay, CDK1; type: biochemical; settings: ATP 20 μM; read-out: CDK1 LANCE assay (activity range), IC50
T6 construct: purchased Carna
Protocol: as §6, §7, §8

CDK9 = molecular target: T7, CDK9 (Homo sapiens, UniProt P50750); assay: Lance Ultra KinaSelect Assay, CDK9; type: biochemical; settings: cyclin partner (T1 or K) not stated; read-out: CDK9 LANCE assay (activity range), IC50
T7 construct: purchased Invitrogen
Protocol: as §6, §7, §8

CDK2/CyclinA [4] = molecular target: T2, CDK2/CyclinA; assay: Lance Ultra KinaSelect Assay, CDK2; type: biochemical; settings: ATP 3 μM; read-out: CDK2 LANCE assay (activity range), IC50
Protocol: as §6, §7, §8

CDK4/CyclinD1 = molecular target: T8, CDK4/CyclinD1 (Homo sapiens, UniProt P11802); assay: Lance Ultra KinaSelect Assay, CDK4; type: biochemical; settings: ATP 90 μM; read-out: CDK4 LANCE assay (activity range), IC50
T8 construct: purchased Invitrogen
Protocol: as §6, §7, §8

[5] = system: NF-kappaB reporter gene activation; assay: NF-kappaB Reporter Assay; type: cell-based; settings: Homo sapiens; HEK293 cells, pNFkBluc reporter, 20 ng/ml TNF alpha, 5 h; read-out: NF-kappaB activation (activity range), IC50
Protocol: 3.2 NF-kappaB Reporter Assay
Cells were maintained in RPMI cell culture medium+glutamine (PAN Biotech GmbH, Aidenbach, Germany) supplemented with 10% fetal calf serum (PAA Laboratories GmbH, Pasching, Austria) and grown at 37° C., 5% CO2. HEK293 cells grown to 50% confluence were transfected with the Amaxa® Cell Line Nucleofector® Kit V (Lonza, Basel, Switzerland, catalog #VCA-1003). Transfections were performed according to manufacturer's optimized protocol for transfection of HEK293 cells. In brief, 2×10^5 cells were transfected with 5 μg highly purified plasmid DNA. Cells were transfected with a NF-kappa B reporter plasmid (pNFkBluc), pTALluc for control, or pMAXGFP for transfection control. After transfection, cells were taken up in 500 μL RPMI1640 cell culture medium, incubated for 1 h at 37° C., and 4.5 ml DMEM without phenol red were added per transfection. Transfected cells were seeded in 96 well plates (Greiner Bio-One, Frickenhausen, Germany, catalog #655098) with 100 μL cell suspension per well and incubated for 48 h. To each well, 100 μL DMEM with 2× concentrated compound diluted from 10 mM DMSO stocks, or 100 μL DMEM with 0.4% DMSO for control wells, was added. The compounds of general formula (I) summarized in Table 6 were used in this assay. Cells were stimulated with 20 ng/ml TNF alpha, and plates were incubated for 5 h at 37° C./5% CO2. Cell culture supernatants were removed to leave 100 μl medium per well, followed by addition of 100 μl Bright Glo luciferase assay reagent (Promega, Madison, Wis., USA, catalog #E2620), and shaking for 5 minutes in the dark. Luminescence was measured with a Victor Photospectrometer (Perkin Elmer, Waltham, Mass., USA). IC50 values were calculated with the software Excel Fit (IDBS, Guildford, UK) from 2-fold dilution series comprising at least 10 concentrations in duplicates.

T1 sequence (P50613 whole entry): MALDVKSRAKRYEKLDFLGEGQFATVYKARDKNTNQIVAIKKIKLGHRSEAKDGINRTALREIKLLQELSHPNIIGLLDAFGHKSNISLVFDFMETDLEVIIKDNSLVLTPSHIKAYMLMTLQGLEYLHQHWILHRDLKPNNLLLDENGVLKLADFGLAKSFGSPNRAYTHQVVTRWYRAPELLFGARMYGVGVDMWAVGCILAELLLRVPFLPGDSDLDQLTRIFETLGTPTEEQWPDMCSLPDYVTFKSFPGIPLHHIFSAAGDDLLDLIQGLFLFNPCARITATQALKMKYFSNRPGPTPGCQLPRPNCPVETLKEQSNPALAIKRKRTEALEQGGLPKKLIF
T1 sequence (P51946 whole entry partner): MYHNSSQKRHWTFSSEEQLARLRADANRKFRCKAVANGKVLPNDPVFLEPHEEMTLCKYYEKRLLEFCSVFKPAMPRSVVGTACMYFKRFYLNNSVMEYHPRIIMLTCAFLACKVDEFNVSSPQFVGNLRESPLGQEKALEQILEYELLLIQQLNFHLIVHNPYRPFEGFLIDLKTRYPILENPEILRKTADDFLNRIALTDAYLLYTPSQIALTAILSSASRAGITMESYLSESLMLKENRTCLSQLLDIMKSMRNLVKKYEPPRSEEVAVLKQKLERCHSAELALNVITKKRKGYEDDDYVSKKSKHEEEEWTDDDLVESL
T1 sequence (P51948 whole entry partner): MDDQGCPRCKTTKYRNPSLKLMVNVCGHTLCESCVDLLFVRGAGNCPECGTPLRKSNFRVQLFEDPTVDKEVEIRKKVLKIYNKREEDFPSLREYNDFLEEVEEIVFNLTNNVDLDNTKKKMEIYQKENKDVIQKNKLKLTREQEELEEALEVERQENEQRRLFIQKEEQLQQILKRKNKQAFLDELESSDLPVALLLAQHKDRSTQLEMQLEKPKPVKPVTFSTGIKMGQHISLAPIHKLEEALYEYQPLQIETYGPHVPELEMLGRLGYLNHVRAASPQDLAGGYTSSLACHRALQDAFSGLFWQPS
T4 sequence (P50750 whole entry): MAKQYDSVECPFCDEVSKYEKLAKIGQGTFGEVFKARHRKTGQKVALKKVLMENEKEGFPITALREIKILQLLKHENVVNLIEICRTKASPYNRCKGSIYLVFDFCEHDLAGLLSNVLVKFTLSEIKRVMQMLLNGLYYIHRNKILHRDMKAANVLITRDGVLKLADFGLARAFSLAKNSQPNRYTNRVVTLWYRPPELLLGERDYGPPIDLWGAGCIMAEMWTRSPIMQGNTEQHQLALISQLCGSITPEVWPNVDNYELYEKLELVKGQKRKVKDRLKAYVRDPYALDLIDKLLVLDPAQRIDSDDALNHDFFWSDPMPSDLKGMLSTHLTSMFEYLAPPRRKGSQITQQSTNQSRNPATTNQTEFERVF
T4 sequence (O75909 1-357 isoform O75909-1 partner): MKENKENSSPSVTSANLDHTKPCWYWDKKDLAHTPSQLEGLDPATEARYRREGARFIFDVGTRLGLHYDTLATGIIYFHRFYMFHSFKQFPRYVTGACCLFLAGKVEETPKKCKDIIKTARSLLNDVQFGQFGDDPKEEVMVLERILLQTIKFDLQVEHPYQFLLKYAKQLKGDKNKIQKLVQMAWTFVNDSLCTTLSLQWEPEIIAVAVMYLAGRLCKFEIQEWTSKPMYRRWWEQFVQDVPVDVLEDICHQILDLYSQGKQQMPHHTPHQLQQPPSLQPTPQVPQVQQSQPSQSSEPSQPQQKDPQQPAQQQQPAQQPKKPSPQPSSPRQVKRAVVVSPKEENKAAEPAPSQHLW
T3 sequence (P50750 whole entry): as the sequence (P50750 whole entry) above
T3 sequence (O60563 whole entry partner): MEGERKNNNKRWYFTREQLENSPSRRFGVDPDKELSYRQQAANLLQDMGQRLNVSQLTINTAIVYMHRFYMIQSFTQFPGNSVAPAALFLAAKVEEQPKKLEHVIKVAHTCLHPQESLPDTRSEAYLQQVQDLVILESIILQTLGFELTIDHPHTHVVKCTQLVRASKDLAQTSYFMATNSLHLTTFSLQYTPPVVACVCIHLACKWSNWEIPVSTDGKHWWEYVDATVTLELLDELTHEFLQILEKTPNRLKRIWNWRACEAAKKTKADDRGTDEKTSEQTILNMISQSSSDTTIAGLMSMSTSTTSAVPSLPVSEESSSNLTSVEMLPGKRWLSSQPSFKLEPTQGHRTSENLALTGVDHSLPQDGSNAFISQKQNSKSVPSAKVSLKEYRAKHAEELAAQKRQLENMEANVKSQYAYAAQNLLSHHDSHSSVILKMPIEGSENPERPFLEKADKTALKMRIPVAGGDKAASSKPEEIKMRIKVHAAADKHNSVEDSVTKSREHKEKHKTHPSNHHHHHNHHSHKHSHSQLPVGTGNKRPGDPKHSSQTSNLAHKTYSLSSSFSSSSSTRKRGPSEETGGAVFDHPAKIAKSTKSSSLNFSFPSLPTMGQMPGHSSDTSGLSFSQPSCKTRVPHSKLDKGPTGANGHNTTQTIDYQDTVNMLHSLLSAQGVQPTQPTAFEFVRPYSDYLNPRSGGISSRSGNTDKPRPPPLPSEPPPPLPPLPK
T5 sequence (Q00534 whole entry): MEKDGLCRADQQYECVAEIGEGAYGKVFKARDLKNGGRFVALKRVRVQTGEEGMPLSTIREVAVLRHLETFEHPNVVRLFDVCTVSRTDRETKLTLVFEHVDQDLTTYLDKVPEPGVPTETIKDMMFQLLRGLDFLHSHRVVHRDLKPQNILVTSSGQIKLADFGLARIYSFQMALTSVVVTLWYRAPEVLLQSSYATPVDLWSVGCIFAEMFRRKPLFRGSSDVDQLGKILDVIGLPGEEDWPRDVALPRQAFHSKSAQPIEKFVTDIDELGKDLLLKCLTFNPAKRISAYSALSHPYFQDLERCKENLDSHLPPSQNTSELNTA
T5 sequence (P30281 whole entry partner): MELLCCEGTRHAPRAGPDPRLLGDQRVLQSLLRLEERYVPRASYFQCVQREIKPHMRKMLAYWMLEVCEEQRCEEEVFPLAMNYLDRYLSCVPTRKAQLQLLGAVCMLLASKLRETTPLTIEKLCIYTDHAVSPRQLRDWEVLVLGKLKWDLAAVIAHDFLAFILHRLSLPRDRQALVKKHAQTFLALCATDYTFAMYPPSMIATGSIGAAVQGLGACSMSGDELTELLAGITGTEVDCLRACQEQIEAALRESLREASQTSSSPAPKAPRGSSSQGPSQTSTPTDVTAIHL
T8 sequence (P11802 whole entry): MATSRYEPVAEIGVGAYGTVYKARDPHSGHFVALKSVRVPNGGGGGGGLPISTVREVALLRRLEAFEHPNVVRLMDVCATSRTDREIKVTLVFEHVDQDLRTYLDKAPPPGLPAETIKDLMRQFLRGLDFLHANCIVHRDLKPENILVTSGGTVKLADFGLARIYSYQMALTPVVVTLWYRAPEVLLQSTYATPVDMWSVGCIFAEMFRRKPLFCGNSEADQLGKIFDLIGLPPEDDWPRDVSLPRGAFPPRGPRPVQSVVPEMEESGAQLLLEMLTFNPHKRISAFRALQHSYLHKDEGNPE
T8 sequence (P24385 whole entry partner): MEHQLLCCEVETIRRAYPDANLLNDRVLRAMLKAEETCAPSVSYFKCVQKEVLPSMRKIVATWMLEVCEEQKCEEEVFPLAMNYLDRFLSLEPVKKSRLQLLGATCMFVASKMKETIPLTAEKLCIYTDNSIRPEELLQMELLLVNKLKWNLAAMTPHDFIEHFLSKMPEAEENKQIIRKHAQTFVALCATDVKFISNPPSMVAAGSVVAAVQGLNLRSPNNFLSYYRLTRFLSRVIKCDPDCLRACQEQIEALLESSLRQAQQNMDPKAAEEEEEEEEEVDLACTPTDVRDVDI
T7 sequence (P50750 whole entry): as the sequence (P50750 whole entry) above
T6 sequence (P06493 whole entry): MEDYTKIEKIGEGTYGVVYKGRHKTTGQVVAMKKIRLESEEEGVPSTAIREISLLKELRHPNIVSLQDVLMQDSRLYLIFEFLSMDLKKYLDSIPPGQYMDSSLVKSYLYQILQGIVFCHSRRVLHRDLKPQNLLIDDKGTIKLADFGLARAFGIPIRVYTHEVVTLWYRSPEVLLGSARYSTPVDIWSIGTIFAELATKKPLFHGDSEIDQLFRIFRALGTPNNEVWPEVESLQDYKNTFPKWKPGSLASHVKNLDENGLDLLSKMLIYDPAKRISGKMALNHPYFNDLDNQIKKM
T6 sequence (P14635 whole entry partner): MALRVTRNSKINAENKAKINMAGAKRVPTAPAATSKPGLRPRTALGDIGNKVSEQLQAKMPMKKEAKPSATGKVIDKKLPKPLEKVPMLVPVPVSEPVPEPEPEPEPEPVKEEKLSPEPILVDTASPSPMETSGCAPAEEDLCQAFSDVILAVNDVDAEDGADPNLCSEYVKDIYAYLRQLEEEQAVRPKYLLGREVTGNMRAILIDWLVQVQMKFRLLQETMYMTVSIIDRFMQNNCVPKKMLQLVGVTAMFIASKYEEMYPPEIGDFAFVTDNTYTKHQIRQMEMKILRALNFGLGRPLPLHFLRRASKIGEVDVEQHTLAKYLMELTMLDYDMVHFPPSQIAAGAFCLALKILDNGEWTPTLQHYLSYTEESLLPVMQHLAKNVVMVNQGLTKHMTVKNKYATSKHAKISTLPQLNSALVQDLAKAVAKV

Kd (CDK7/CyclinH/MAT1 [1])	IC50 (Hela cells)	IC50 (MDAMB468 cells)	Kd (CDK2/CyclinA [2])	Kd (CDK9/Cyclin T1)	Kd (CDK9/Cyclin K)	IC50 (CDK7/CyclinH/MAT1 [3])	IC50 (CDK6/CyclinD3)	IC50 (CDK1/CyclinB1)	IC50 (CDK9)	IC50 (CDK2/CyclinA [4])	IC50 (CDK4/CyclinD1)	IC50 [5]	SMILES
> 10 µM	> 10 µM	> 10 µM	0.1 to 1 µM	< 0.1 µM	< 0.1 µM								NS(=O)(=O)Cc1cccc(Nc2ncnc(N3Cc4ccncc4C3)n2)c1 [Compound B49, 3-[(4-(1H-Pyrrolo[3,4-c]pyridin-2(3H)-yl)-1,3,5-triazin-2-yl)amino]-benzenemethanesulfonamide]
> 10 µM	> 10 µM	1 to 10 µM	1 to 10 µM	< 0.1 µM	< 0.1 µM								NS(=O)(=O)Cc1cccc(Nc2ncnc(N3CCC[C@@H]3c3ccccc3)n2)c1 [Compound B34, (R)-3-[(4-(2-Phenylpyrrolidin-1-yl)-1,3,5-triazin-2-yl)amino]-benzenemethanesulfonamide]
				1 to 10 µM	1 to 10 µM	> 10 µM	> 10 µM	> 10 µM	1 to 10 µM	> 10 µM	> 10 µM		CN(C)CCC1CCCCN1c1ncnc(Nc2cccc(CS(N)(=O)=O)c2)n1 (racemic) [Compound B8, rac-3-[(4-(2-(2-(Dimethylamino)ethyl)piperidin-1-yl)-1,3,5-triazin-2-yl)amino]benzenemethanesulfonamide]
> 10 µM			> 10 µM	0.1 to 1 µM	0.1 to 1 µM							> 10 µM	NS(=O)(=O)Cc1cccc(Nc2ncnc(N3CCC[C@@H]3COCc3ccccc3)n2)c1 [Compound B30, (R)-3-[(4-(2-(Benzyloxymethyl)pyrrolidin-1-yl)-1,3,5-triazin-2-yl)amino]benzenemethanesulfonamide]
